Results on eleven compounds are retold here after article PMC11514314, “The aquastatin biosynthetic gene cluster encodes a versatile polyketide synthase capable of synthesising heteromeric depsides with diverse alkyl side chains” (Chemical Science, 2024).

One data set relates to B. subtilis (ATCC 6633). The experiment in a line: Antibacterial ProTOX bioassay, B. subtilis. Particulars: Bacillus subtilis, ATCC6633; B. subtilis ATCC 6633, 48 h, 28 °C; read-out: Minimum inhibitory concentration (MIC) B. subtilis. The data set is classed as cell-based. The method, then:
(§1) 12. Bioactivity screening.
(§2) Purified metabolites were dissolved in DMSO to create stock solutions of 10,000 µg/mL. An aliquot from each stock solution was transferred to the first well of Rows B to G on a 96-well microtitre plate and then serially diluted two-fold with DMSO across the 12 wells of the plate to achieve a 2,048-fold concentration gradient. Bioassay medium was added to an aliquot of each diluted solution to achieve a 100-fold dilution in the final bioassay. This […]
(§3) 0.1 µg/mL in 2% DMSO for yeasts. Row A served as a control with no test compound (indicating no inhibition), and Row H was left uninoculated (serving as a control for complete inhibition).
(§4) B. subtilis (ATCC 6633), S. aureus (ATCC 25923) and MRSA (ATCC 33592) were used as indicator species for antibacterial activity, employing the ProTOX bioassay platform. A bacterial suspension (50 mL in a 250 mL flask) was prepared in nutrient media by cultivating it for 24 h at 250 rpm and 28 °C. The suspension was diluted to an absorbance of 0.01 absorbance units per mL, and 10 µL aliquots were added to the wells of a 96-well microtitre plate containing the test compounds dispersed in 190 µL of nutrient broth (Amyl) with 10 µL resazurin (12.5 µg/mL). The plates were incubated at 28 °C for 48 h, during which the positive control wells changed colour from blue to light pink. Tetracycline was employed as a control for B. subtilis, while ampicillin was used for S. aureus and MRSA. MIC endpoints were determined visually. Absorbance was measured using a Multiskan Skyhigh Microplate Spectrophotometer (Thermo Fisher Scientific) at 605 nm.

In the next data set the test system is S. aureus (ATCC 25923). As to the kind of experiment: Antibacterial ProTOX bioassay, S. aureus. The format is cell-based. Particulars: Staphylococcus aureus, ATCC25923; S. aureus ATCC 25923, 48 h, 28 °C; read-out: Minimum inhibitory concentration (MIC) S. aureus. As for the experimental part: as §1, §2, §3, §4
The subject of another data set is MRSA (ATCC 33592). As to the kind of experiment: Antibacterial ProTOX bioassay, MRSA. Particulars: MRSA ATCC 33592, 48 h, 28 °C; for MIC: Staphylococcus aureus, read-out: Minimum inhibitory concentration (MIC) MRSA. The format is cell-based, methicillin-resistant S. aureus. As for the experimental part: as §1, §2, §3, §4
Data set [1] deals with Saccharomyces cerevisiae (ATCC 9763). As to the kind of experiment: Antifungal EuTOX bioassay, S. cerevisiae. The data set is classed as cell-based. Particulars: S. cerevisiae ATCC 9763, 48 h; for MIC: Saccharomyces cerevisiae, ATCC9763, read-out: Minimum inhibitory concentration (MIC) S. cerevisiae. The method, then: as §1, §2
(§5) 0.1 µg/mL in 2% DMSO for yeasts. Row A served as a control with no test compound (indicating no inhibition), and Row H was left uninoculated (serving as a control for complete inhibition). […]
(§6) MIC endpoints were determined visually. Absorbance was measured using a Multiskan Skyhigh […]
Saccharomyces cerevisiae (ATCC 9763) was used as indicator species for antifungal activity, employing the EuTOX bioassay platform. A yeast suspension (50 mL in a 250 mL flask) was prepared in 1% malt extract broth by cultivating it for 24 h at 250 rpm and 24 °C. The suspension was diluted to absorbances of 0.03 absorbance units per mL and 30 µL were added to the wells of a 96-well microtitre plate containing the test compounds dispersed in 100 µL of malt extract agar with bromocresol green (50 µg/mL). The plates were incubated at 28 °C for 48 h, during which the positive control wells changed colour from blue to yellow. Blasticidin S HCl was used

Data set [2] has as its system NS-1 (ATCC TIB-18) mouse myeloma cells. As to the kind of experiment: Cytotoxicity resazurin assay, NS-1 cells. The data set is classed as cell-based. Particulars: for IC50: read-out: IC50 NS-1; for cytotoxicity against NS-1 cells (in words): mouse myeloma NS-1. As for the experimental part: as §1, §2, §5, §6, §6
(§7) NS-1 (ATCC TIB-18) mouse myeloma and NFF (ATCC PCS -201) human neonatal foreskin fibroblast cells were each inoculated in 96-well microtitre plates (190 µL) at 50,000 cells/mL in DMEM (Dulbecco's Modified Eagle Medium + 10% fetal bovine serum (FBS) + 1% penicillin/streptomycin (10,000 U/mL / 10,000 µg/mL, Life Technologies Cat. No. 15140122), together with resazurin (250 µg/mL; 10 µL) and incubated in 37 °C (5% CO2) incubator. The plates were incubated for 96 h during which time the positive control wells change colour from a blue to pink colour. The absorbance of each well was measured using Multiskan Skyhigh Microplate Spectrophotometer (Thermofisher Scientific) at 605 nm. Sparsomycin was used as a control. The IC50 values were determined using a sigmoidal dose-response model with variable slope in GraphPad Prism 8.
(In general: Resazurin is reduced to fluorescent resorufin, in cell work by metabolically active cells.)

Data set [3] has as its system NFF (ATCC PCS-201) human neonatal foreskin fibroblast cells. As to the kind of experiment: Cytotoxicity resazurin assay, NFF cells. The format is cell-based. Particulars: for IC50: Homo sapiens, 96 h, read-out: IC50 NFF. The method, then: as §1, §2, §5, §6, §6, §7
The mark [4] stands for this setting: NS1, mouse myeloma NS-1 ATCC TIB-18, 96 h.
The mark [5] stands for this setting: neonatal foreskin fibroblast NFF.

Values after ≈ are worked out from the molar mass of the structure shown. Like-named read-outs stand apart in the source and are kept apart here.

Usually IC50 stands for the midpoint of a concentration-inhibition curve. `CCCCCCCCCCCCCCCc1cc(O[C@@H]2O[C@H](CO)[C@H](O)[C@H](O)[C@H]2O)cc(O)c1C(=O)O` [1d, Aquastatin D]: the MIC stood at 3.1 µg/mL (≈ 5.89 µM) in the data set with B. subtilis (ATCC 6633), 12.5 µg/mL (≈ 23.7 µM) with S. aureus (ATCC 25923), 6.3 µg/mL (≈ 12 µM) with MRSA (ATCC 33592) and 3.1 µg/mL (≈ 5.89 µM) in data set [1]. Also, the IC50 in data set [2] (setting [4]) is greater than 50 µg/mL; in data set [3] (setting [5]), greater than 100 µg/mL. In addition, the “cytotoxicity against NS-1 cells (in words)” value in data set [2] is reported as “did not exhibit cytotoxicity”. In data set [3], the “cytotoxicity against NFF cells (in words)” value is on record as “did not exhibit cytotoxicity”.

With `CCCCCCCCCCCCCCCc1cc(O)cc(O)c1C(=O)OC` [1e, aquastatin E], the MIC was greater than 100 µg/mL with B. subtilis (ATCC 6633), greater than 100 µg/mL with S. aureus (ATCC 25923), greater than 100 µg/mL in the data set on MRSA (ATCC 33592) and greater than 200 µg/mL in data set [1]. The IC50 in data set [2] (setting [4]) and in data set [3] (setting [5]) was greater than 100 µg/mL in each case.

`CCCCCCCCCCCCCCCc1cc(O)cc(O)c1C(=O)O` [1f, corticiolic acid]: the MIC was 0.8 µg/mL (≈ 2.19 µM) in the data set with B. subtilis (ATCC 6633), 3.1 µg/mL (≈ 8.5 µM) with S. aureus (ATCC 25923), 3.1 µg/mL (≈ 8.5 µM) in the data set on MRSA (ATCC 33592) and greater than 200 µg/mL in data set [1]. The IC50 in data set [2] (setting [4]) was 25 µg/mL (≈ 68.6 µM); in data set [3] (setting [5]), greater than 100 µg/mL.

In the case of `CCCCCCCCCCCCCc1cc(O[C@@H]2O[C@H](CO)[C@H](O)[C@H](O)[C@H]2O)cc(O)c1C(=O)Oc1cc(C)c(C(=O)O)c(O)c1` [3a, Ariestatin A], the MIC in the data set on B. subtilis (ATCC 6633) was 1.6 µg/mL (≈ 2.47 µM); in the data set on S. aureus (ATCC 25923) it was 3.1 µg/mL (≈ 4.78 µM); in the data set on MRSA (ATCC 33592), 6.3 µg/mL (≈ 9.71 µM); in data set [1], greater than 200 µg/mL. In addition, the IC50 in data set [2] (setting [4]) and in data set [3] (setting [5]) was greater than 100 µg/mL in each case.

For `CCCCCCCCCCCCCc1cc(O)cc(O)c1C(=O)Oc1cc(C)c(C(=O)O)c(O)c1` [3b, Ariestatin B], the MIC with B. subtilis (ATCC 6633) is 1.6 µg/mL (≈ 3.29 µM); in the data set on S. aureus (ATCC 25923) it was 12.5 µg/mL (≈ 25.7 µM); in the data set with MRSA (ATCC 33592), 12.5 µg/mL (≈ 25.7 µM); in data set [1], greater than 200 µg/mL. For the same compound, the IC50 in data set [2] (setting [4]) and in data set [3] (setting [5]) was greater than 50 µg/mL each time.

For `CCCCCCCCCCCCCc1cc(O[C@@H]2O[C@H](CO)[C@H](O)[C@H](O)[C@H]2O)cc(O)c1C(=O)OC` [3c, Ariestatin C], the MIC is greater than 100 µg/mL in the data set on B. subtilis (ATCC 6633), greater than 100 µg/mL in the data set on S. aureus (ATCC 25923), greater than 100 µg/mL with MRSA (ATCC 33592) and greater than 200 µg/mL in data set [1]. The values for the IC50 in data set [2] (setting [4]) and in data set [3] (setting [5]) were 0.2 µg/mL (≈ 0.39 µM) and greater than 100 µg/mL, respectively. Moreover, the “cytotoxicity against NS-1 cells (in words)” value in data set [2] was “cytotoxicity was observed”. Besides, the “cytotoxicity against NFF cells (in words)” value in data set [3] was “no activity was detected”.

Consider `CCCCCCCCCCCCCc1cc(O[C@@H]2O[C@H](CO)[C@H](O)[C@H](O)[C@H]2O)cc(O)c1C(=O)O` [3d, Ariestatin D], for which the MIC with B. subtilis (ATCC 6633) is 25 µg/mL (≈ 50.1 µM); in the data set on S. aureus (ATCC 25923) it was greater than 50 µg/mL; in the data set with MRSA (ATCC 33592) it was greater than 50 µg/mL; in data set [1], 3.1 µg/mL (≈ 6.22 µM). Further, the IC50 in data set [2] (setting [4]) and in data set [3] (setting [5]) was greater than 50 µg/mL each time. Also, the “cytotoxicity against NS-1 cells (in words)” value in data set [2] is “did not exhibit cytotoxicity”. The “cytotoxicity against NFF cells (in words)” value in data set [3] is reported as “did not exhibit cytotoxicity”.

On to `CC1(C)S[C@@H]2[C@H](NC(=O)[C@H](N)c3ccccc3)C(=O)N2[C@H]1C(=O)O` [ampicillin, reference compound], for which, in the data set on S. aureus (ATCC 25923), the MIC is 3.1 µg/mL (≈ 8.87 µM). In the data set on MRSA (ATCC 33592), the “Minimum inhibitory concentration (MIC) MRSA” value was greater than 100 µg/mL and the MIC was greater than 100 µg/mL.

As to `CN(CC[C@H](N)CC(=O)N[C@@H]1C=C[C@@H](n2ccc(N)nc2=O)O[C@H]1C(=O)O)C(=N)N.Cl` [blasticidin S HCl, reference compound], the “Minimum inhibitory concentration (MIC) S. cerevisiae” value in data set [1] stood at 3.1 µg/mL.

As for `CSC[S@+]([O-])C[C@H](CO)NC(=O)/C=C/c1c(C)[nH]c(=O)[nH]c1=O` [sparsomycin, reference compound], the IC50 in data set [2] (Mus musculus, NS1, 96 h) stood at 1.7 µg/mL (≈ 4.7 µM); in data set [3] (Fibroblast), 1.7 µg/mL (≈ 4.7 µM).

Turning to `CN(C)[C@@H]1C(O)=C(C(N)=O)C(=O)[C@@]2(O)C(O)=C3C(=O)c4c(O)cccc4[C@@](C)(O)[C@H]3C[C@@H]12` [tetracycline, reference compound], in the data set with B. subtilis (ATCC 6633), the MIC came out at 6.3 µg/mL (≈ 14.2 µM).
